From US20250325516A1, “SEROTONIN ANALOGUES FOR USE IN TREATING METALLOPTOSIS-ASSOCIATED DISORDERS” (INSTITUT CURIE, priority 2022, published 2025)
Counter-ions that a name gives are not always drawn.

Key:
[1] = Colorimetric assessment of metal complex formation in aqueous solution; assay type: binding
Description: […] assessment of complex formation: To an aqueous solution of serotonin hydrochloride (3 equiv., C=0.1 M) or A3 formic salt (3 equiv., C=0.1 M) iron (III) chloride (1 equiv.) or copper (II) sulfate (C=0.1 M) was added. A color change characterized the formation of metal complexes.

BELA cells = test: RhoNox-M (lysosomal Fe2+ probe) flow cytometry; assay type: cell-based; conditions: 10 μM, 24 h
Description: All cells were grown in an incubator equilibrated at 37° C. with 5% CO2, grown to confluence and split with Trypsin/EDTA (Gibco, TRYPGIB01) once or twice a week according to confluence. HMLER cells ([…]) naturally repressing E-cadherin, obtained from human mammary epithelial cells infected with a retrovirus carrying hTERT, SV40 and the oncogenic allele H-rasV12, and HMLER CD44 and TFRC ko clones were cultured in DMEM/F12 (Thermo Fisher Scientific, 31331093) supplemented with 10% FBS (v/v) (Thermo Fisher Scientific, 10270106), 10 μg/mL insulin (Sigma-Aldrich, 10516), 0.5 μg/mL hydrocortisone (Sigma-Aldrich, H0888) and 0.5 μg/ml puromycin (Life Technologies, A11138-02), unless stated otherwise. PDAC053 T cells were grown in serum-free ductal medium: DMEM/F12 supplemented with 0.61 g/500 mL nicotinamide (Sigma-Aldrich, 3376), 2.50 g/500 mL glucose (Sigma-Aldrich, G6152), 1:200 ITS+ (Corning, 354352), 1:20 Nu-serum IV (Corning, 355104), 100 ng/ml cholera toxin, 1 μM dexamethasone (Sigma-Aldrich, D4902), 50 nM 3,3′,5-triiodo-L-thyronine (Sigma-Aldrich, T6397) and 1× PenStrep. BELA cells were cultured using published procedures (Nat. Comm. doi: 10.1038/ncomms14750).
Bodipy-C11 (Thermo Fisher Scientific, D3861) were used according to the manufacturer's protocol. RhoNox-M (in-house) was added to live cells prior to flow cytometry analysis for 1 h at a concentration of 1 μM. For the Annexin/PI assay (Thermo Fisher Scientific, V13245, manufacturer's protocol) BELA cells were treated with RSL3 in the presence or absence of 1 μM Liproxstatin-1 (Sigma-Aldrich, SML1414) or 10 μM A3 for 24 h. Cells were then washed twice with ice-cold 1×PBS and suspended in incubation buffer prior to being analyzed by flow cytometry. The manufacturer's protocol was followed. For each condition, at least 10,000 cells were counted. Data were recorded on an Attune (Thermo Fisher Scientific) and processed using FlowJo (FLOWJO, LLC).

PDAC cells [2] = test: Anti-ferroptotic activity: BODIPY-C11 flow cytometry, PDAC cells co-treated with RSL3 (FIG. 8); assay type: cell-based; conditions: RSL3 200 nM, compounds 10 μM
Description: Pancreatic Ductal Adenocarcinoma (PDAC) cells were grown at 37° C. and 5% CO2 using medium prepared based on previously described (https://doi.org/10.1053/j.gastro.2004.03.058).
PDAC cells were seeded on 6 well plates at the density of 2×10^5 cells/well. RSL3 (200 nM) was added along with compounds (10 μM for screening) on the following day and after 23 hr, BODIPY (4 μM) was added for 1 hr. The media was removed and the cells were washed with PBS twice before typsinization. The cells were harvested, pelleted, washed with PBS and finally PBS buffer containing 10% FBS and EDTA, was added for flow cytometry. The results are shown in FIG. 8 and this enabled us to establish a robust structure activity relationship on the serotonin scaffold.

PDAC cells [3] = test: Click-labelling fluorescence microscopy with LysoTracker and organelle antibodies, PDAC cells (FIG. 9); assay type: cell-based; conditions: 10 μM, 3 h
Description: Pancreatic Ductal Adenocarcinoma (PDAC) cells were grown at 37° C. and 5% CO2 using medium prepared based on previously described (https://doi.org/10.1053/j.gastro.2004.03.058). Cells were plated on cover slips 24 h prior to the experiment. The cells were treated with 10 µM of compounds for 3 h and LysoTracker Deep Red (ThermoFisher Scientific L12492, 1:10000) according to the manufacturer's protocol. Subsequently, cells were washed three times with 1×PBS and fixed with 2% paraformaldehyde (w/v) in 1×PBS for 12 min, and then washed three times with 1×PBS. After fixation, cells were permeabilized with 0.1% Triton X-100 (v/v) in 1×PBS for 5 min and washed three times with 1×PBS. Then, cells were blocked in 2% BSA, 0.2% Tween-20 (w/v)/1×PBS (blocking buffer) for 20 min at RT. The click reaction cocktail was prepared from Click-iT EdU Imaging Kits (ThermoFisher Scientific, C10337) according to the manufacturer's protocol. Briefly, 868 μL of 1× Click-iT reaction buffer was mixed with 40 μl CuSO4 solution, 2 μL Alexa Fluor azide and 90 μl reaction buffer additive (sodium ascorbate) to reach a final volume of 1 mL. Cover slips were incubated with 50 μl of the click reaction cocktail in the dark at RT for 30 minutes, then washed three times with 1×PBS. Further, cells were incubated with the relevant antibody in blocking buffer for 1 h at room temperature and washed three times with blocking buffer. Then, cells were incubated with secondary antibodies for 1 h. Finally, cover slips were washed three times with 1×PBS and mounted using VECTASHIELD (Vector Laboratories) containing DAPI and were sealed with nail varnish Express manucure (Maybelline, 16P201). Fluorescence images were acquired using a Deltavision real-time microscope (Applied Precision). 100×/1.4NA objectives were used for 2D and 3D acquisitions that were deconvoluted with SoftWorx (Ratio conservative-10 iterations, Applied Precision) and processed with ImageJ.

[4] = Cyclic voltammetry of FeCl3 after addition of compounds (FIG. 10b); assay type: binding; conditions: 1 mM FeCl3 in 0.3 M nBu4NBF4 in MeCN, scan rate 2 V/s
Description: Cyclic voltammetry experiments were performed with a three-electrode cell under argon. Saturated Calomel Electrode (SCE) was used as reference, a steady Glassy Carbon (GC) electrode of diameter 3 mm was selected as working electrode and a Platinum wire as counter-electrode. All cyclic voltammograms were recorded at RT with a μ-autolab III from Metrohm using Nova software with a scan rate of 2 V/s. MeCN was used as a degassed HPLC grade from Carlo Erba. Water was mQ H2O. Stock solution of FeCl3 (100 mM) and Lip-1, A3, A0 and DFO (20 mM) were prepared with 0.3 M nBu4NBF4 in MeCN. 1 mM FeCl3 in 0.3 M nBu4NBF4 in MeCN (1 mL) was used as working solution for recording and subsequently equivalents of compounds were added, stirred and recorded.

[5] = reference in cyclic voltammetry; cited from earlier work

Compound | RhoNox-M fluorescence (lysosomal Fe(II)) (BELA cells) | anti-ferroptotic activity (active / inactive compound) (PDAC cells [2]) | localization in lysosomes (PDAC cells [3]) | other results
NCCc1c[nH]c2ccc(O)cc12 [Serotonin, serotonin hydrochloride] |  |  |  | colour of solution in the presence of FeCl3 and CuSO4, indicative of complex formation ([1]; aqueous solution, 3 equiv. compound, C=0.1 M): form differently colored solutions; complex formation with Fe(II), Fe(III) and Cu(II) ([1]; colorimetric complexation studies in solution (FIG. 1) and NMR spectroscopy (FIG. 2)): form readily complexes
CC(CCCCCCC(C)NCCc1c[nH]c2ccc(O)cc12)NCCc1c[nH]c2ccc(O)cc12 (centres unmarked) [LC357] | increase of RhoNox-M fluorescence |  |  | 
CCCCNCCc1c[nH]c2ccc(O)cc12 [LT265B] | increase of RhoNox-M fluorescence |  |  | 
C#CCN(CC#C)CCc1c[nH]c2ccc(O)cc12 [Compound A4] |  | Active | localized in lysosomes | 
Oc1ccc2[nH]cc(CCNC3CCCCC3)c2c1 [LC336] | increase of RhoNox-M fluorescence |  |  | 
C#CCOc1ccc2c(c1)c(CCN(CC#C)CC#C)cn2CC#C [Compound A0] |  | inactive | doesn't go to lysosomes | binding / chelation of Fe^3+ (cyclic voltammetry) [4]: doesn't binds to Fe^3+
CCCCCCCCCCNCCc1c[nH]c2ccc(O)cc12 [LT262A] | increase of RhoNox-M fluorescence |  |  | 
CC(=O)N(O)CCCCCNC(=O)CCC(=O)N(O)CCCCCNC(=O)CCC(=O)N(O)CCCCCN [DFO] |  |  |  | Fe^3+ chelation, known property of the reference [5]: known Fe^3+ chelator
C#CCOc1ccc2[nH]cc(CCN(CC#C)CC#C)c2c1 [Compound A1] |  | Active | localized in lysosomes | 
